The nature of this data set: recombinant UMI read abundance after kanamycin selection (control-corrected) (log10(CPM+1)); higher = more efficient recombination; extreme values may be limits of the assay; sequences stand for … in AGTGCAGAGAAAATCGGCCAGTTTTCTCTGCCTGCAGTCCGCATGCCGTGGGACCCCTTGGGTTCTAACCTGTTGCCTAGATTTATGCAGCGGACTGCCTTTCTCCCAAAGTGATAAACCGG…AGGTTGGTTTCACT; site = the 11-nt donor. In a few lines: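 Pooled Escherichia coli screen of donor and donor-binding-loop pairs for the IS621 bridge recombinase. Each pair sits with a 12-nt UMI on a plasmid carrying a promoterless kanamycin gene. The library was co-electroporated with a target plasmid encoding a fixed target and T7-inducible recombinase, then plated with IPTG (0.07 mM) plus kanamycin, or unselected, each in two replicates. Recombinant UMIs were PCR-amplified across the donor–target junction and sequenced. Counts became CPM, averaged over replicates, scaled by control-derived factors and reported as log10(CPM+1).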
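Also: IS621 bridge recombinase in Escherichia coli cells against a fixed T5 target plasmid.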

With “ATAAGGCCATGGACCGGTTTTCCCGGTAATCCGTATTTGTC (site ATAAGGCCTGG)”, the “recombinant UMI read abundance (log10)” value worked out at 2.46.

For the sequence “ATAAGGCCATGGACCGGTTTTCCCGGTAATCCGTATTTGTC (site ATAAGGCCTGT)”, the “recombinant UMI read abundance (log10)” value was found to be 0.

Regarding “ATAAGGTCATGGACCGGTTTTCCCGGTAATCCGTATTTGCA (site ATAAGGTCTTG)”, the “recombinant UMI read abundance (log10)” value is 2.96.

As to “ATACAAGCATGGACCGGTTTTCCCGGTAATCCGTATTTGAG (site ATACAAGCTCT)”, the “recombinant UMI read abundance (log10)” value was determined as 2.31.

Consider “ATACAAGCATGGACCGGTTTTCCCGGTAATCCGTATTTGAG (site ATCCAAGCTCT)”, for which the “recombinant UMI read abundance (log10)” value stood at 0.803.

Take “ATACAAGCATGGACCGGTTTTCCCGGTAATCCGTATTTGAG (site ATGCAAGCTCT)”: the “recombinant UMI read abundance (log10)” value is 0.923.

As for “ATACAAGCATGGACCGGTTTTCCCGGTAATCCGTATTTGAG (site ATTCAAGCTCT)”, the “recombinant UMI read abundance (log10)” value is 0.673.

Consider “ATACATGCATGGACCGGTTTTCCCGGTAATCCGTATTTGCT (site ATACATGCTAG)”, for which the “recombinant UMI read abundance (log10)” value is 2.75.

As for “ATACGGCCATGGACCGGTTTTCCCGGTAATCCGTATTTGAC (site ATAAGGCCTGT)”, the “recombinant UMI read abundance (log10)” value was 0.

With “ATACGGCCATGGACCGGTTTTCCCGGTAATCCGTATTTGAC (site ATACGGCCTGT)”, the “recombinant UMI read abundance (log10)” value amounted to 0.

For the sequence “ATACGGCCATGGACCGGTTTTCCCGGTAATCCGTATTTGAC (site ATAGGGCCTGT)”, the “recombinant UMI read abundance (log10)” value turned out to be 0.

“ATACGGCCATGGACCGGTTTTCCCGGTAATCCGTATTTGAC (site ATATGGCCTGT)”: the “recombinant UMI read abundance (log10)” value was 0.

Take “ATACTAACATGGACCGGTTTTCCCGGTAATCCGTATTTGGA (site ATACTAACTTC)”: the “recombinant UMI read abundance (log10)” value turned out to be 1.2.

“ATACTAACATGGACCGGTTTTCCCGGTAATCCGTATTTGGA (site CTACTAACTTC)”: the “recombinant UMI read abundance (log10)” value stood at 0.853.

As for “ATACTAACATGGACCGGTTTTCCCGGTAATCCGTATTTGGA (site GTACTAACTTC)”, the “recombinant UMI read abundance (log10)” value was 0.275.

On to “ATACTAACATGGACCGGTTTTCCCGGTAATCCGTATTTGGA (site TTACTAACTTC)”, for which the “recombinant UMI read abundance (log10)” value stood at 2.05.

“ATACTGGCATGGACCGGTTTTCCCGGTAATCCGTATTTGTT (site ATACTGGCTAA)”: the “recombinant UMI read abundance (log10)” value was 0.589.

On to “ATAGACTCATGGACCGGTTTTCCCGGTAATCCGTATTTGGT (site ATAGACTCTAC)”, for which the “recombinant UMI read abundance (log10)” value came out at 2.79.

For “ATAGCATCATGGACCGGTTTTCCCGGTAATCCGTATTTGAC (site ATAGCATCTGT)”, the “recombinant UMI read abundance (log10)” value came to 3.53.

As to “ATAGCATCATGGACCGGTTTTCCCGGTAATCCGTATTTGAC (site CTAGTATCTGT)”, the “recombinant UMI read abundance (log10)” value came out at 1.8.

“ATAGGAGCATGGACCGGTTTTCCCGGTAATCCGTATTTGGC (site ATAGGAGCTGC)”: the “recombinant UMI read abundance (log10)” value came out at 2.91.

In the case of “ATAGTATCATGGACCGGTTTTCCCGGTAATCCGTATTTGCG (site ACAGTATCTTG)”, the “recombinant UMI read abundance (log10)” value was determined as 1.46.

Take “ATAGTATCATGGACCGGTTTTCCCGGTAATCCGTATTTGCG (site ATAGTATCTCG)”: the “recombinant UMI read abundance (log10)” value was 3.07.

For the sequence “ATAGTTTCATGGACCGGTTTTCCCGGTAATCCGTATTTGAC (site ATAGTTTCTGT)”, the “recombinant UMI read abundance (log10)” value was determined as 2.62.

On to “ATAGTTTCATGGACCGGTTTTCCCGGTAATCCGTATTTGAC (site CTAGTATCTGT)”, for which the “recombinant UMI read abundance (log10)” value came out at 2.45.

On to “ATATCGGCATGGACCGGTTTTCCCGGTAATCCGTATTTGGT (site ATATCGGCTAC)”, for which the “recombinant UMI read abundance (log10)” value was 0.889.

As to “ATATGACCATGGACCGGTTTTCCCGGTAATCCGTATTTGAC (site ATATGACCTGT)”, the “recombinant UMI read abundance (log10)” value was 0.

As for “ATATGATCATGGACCGGTTTTCCCGGTAATCCGTATTTGGG (site ATATGATCTCC)”, the “recombinant UMI read abundance (log10)” value worked out at 1.26.

Consider “ATATGGCCATGGACCGGTTTTCCCGGTAATCCGTATTTGAC (site ATAAGGCCTGT)”, for which the “recombinant UMI read abundance (log10)” value is 0.

“ATATGGCCATGGACCGGTTTTCCCGGTAATCCGTATTTGAC (site ATACGGCCTGT)”: the “recombinant UMI read abundance (log10)” value turned out to be 0.

On to “ATATGGCCATGGACCGGTTTTCCCGGTAATCCGTATTTGAC (site ATAGGGCCTGT)”, for which the “recombinant UMI read abundance (log10)” value was determined as 0.

With “ATATGGCCATGGACCGGTTTTCCCGGTAATCCGTATTTGAC (site ATATGGCCTGT)”, the “recombinant UMI read abundance (log10)” value came to 0.

For the sequence “ATATTCGCATGGACCGGTTTTCCCGGTAATCCGTATTTGCT (site ATATTCGCTAG)”, the “recombinant UMI read abundance (log10)” value was found to be 2.58.

As to “ATCAAAGCATGGACCGGTTTTCCCGGTAATCCGTATTTGAG (site ATCAAAGCTCT)”, the “recombinant UMI read abundance (log10)” value was found to be 2.17.

On to “ATCAAAGCATGGACCGGTTTTCCCGGTAATCCGTATTTGAG (site ATCCAAGCTCT)”, for which the “recombinant UMI read abundance (log10)” value worked out at 0.889.

“ATCAAAGCATGGACCGGTTTTCCCGGTAATCCGTATTTGAG (site ATCGAAGCTCT)”: the “recombinant UMI read abundance (log10)” value was 0.781.

Consider “ATCAAAGCATGGACCGGTTTTCCCGGTAATCCGTATTTGAG (site ATCTAAGCTCT)”, for which the “recombinant UMI read abundance (log10)” value came out at 0.855.

Regarding “ATCACATCATGGACCGGTTTTCCCGGTAATCCGTATTTGCG (site ATCACATCTCG)”, the “recombinant UMI read abundance (log10)” value was 2.31.

For “ATCAGACCATGGACCGGTTTTCCCGGTAATCCGTATTTGCA (site ATCAGACCTTG)”, the “recombinant UMI read abundance (log10)” value turned out to be 0.

For “ATCAGGCCATGGACCGGTTTTCCCGGTAATCCGTATTTGAC (site ATAAGGCCTGT)”, the “recombinant UMI read abundance (log10)” value amounted to 0.

In the case of “ATCAGGCCATGGACCGGTTTTCCCGGTAATCCGTATTTGAC (site ATCAGGCCTGT)”, the “recombinant UMI read abundance (log10)” value was found to be 0.

On to “ATCAGGCCATGGACCGGTTTTCCCGGTAATCCGTATTTGAC (site ATGAGGCCTGT)”, for which the “recombinant UMI read abundance (log10)” value amounted to 0.

Take “ATCAGGCCATGGACCGGTTTTCCCGGTAATCCGTATTTGAC (site ATTAGGCCTGT)”: the “recombinant UMI read abundance (log10)” value was 0.

Take “ATCAGGCCATGGACCGGTTTTCCCGGTAATCCGTATTTGAG (site ATCAGGCCTCT)”: the “recombinant UMI read abundance (log10)” value came out at 0.

For “ATCATGCCATGGACCGGTTTTCCCGGTAATCCGTATTTGCC (site ATCATGCCTGG)”, the “recombinant UMI read abundance (log10)” value came out at 0.

Consider “ATCATTGCATGGACCGGTTTTCCCGGTAATCCGTATTTGAC (site ATCATTGCTGT)”, for which the “recombinant UMI read abundance (log10)” value was determined as 1.48.

With “ATCATTTCATGGACCGGTTTTCCCGGTAATCCGTATTTGCA (site ATCATTTCTTG)”, the “recombinant UMI read abundance (log10)” value came to 1.73.

Turning to “ATCCAAGCATGGACCGGTTTTCCCGGTAATCCGTATTTGAC (site ATCCAAGCTAT)”, the “recombinant UMI read abundance (log10)” value was found to be 0.937.

On to “ATCCAAGCATGGACCGGTTTTCCCGGTAATCCGTATTTGAC (site ATCCAAGCTCT)”, for which the “recombinant UMI read abundance (log10)” value came to 0.0101.

Consider “ATCCAAGCATGGACCGGTTTTCCCGGTAATCCGTATTTGAC (site ATCCAAGCTGT)”, for which the “recombinant UMI read abundance (log10)” value is 1.73.

On to “ATCCAAGCATGGACCGGTTTTCCCGGTAATCCGTATTTGAC (site ATCCAAGCTTT)”, for which the “recombinant UMI read abundance (log10)” value came out at 0.767.

As to “ATCCAAGCATGGACCGGTTTTCCCGGTAATCCGTATTTGAG (site AACCAAGCTCT)”, the “recombinant UMI read abundance (log10)” value is 0.0115.

Values taken from the supplement of paper PMC11208160.
